Target: T1, Caspase 3 (Homo sapiens, UniProt P42574)
T1 sequence (P42574 29-175 limits assumed): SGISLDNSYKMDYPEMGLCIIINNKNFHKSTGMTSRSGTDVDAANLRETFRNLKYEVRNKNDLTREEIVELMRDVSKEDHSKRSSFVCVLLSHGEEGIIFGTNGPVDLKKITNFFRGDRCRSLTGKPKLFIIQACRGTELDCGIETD
T1 sequence (P42574 176-277 limits assumed): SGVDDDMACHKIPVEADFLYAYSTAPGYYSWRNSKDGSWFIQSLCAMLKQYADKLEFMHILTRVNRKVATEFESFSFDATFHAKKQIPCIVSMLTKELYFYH
Assay: Caspase 3 activity assay (Ac-DEVD-AMC)
Format: biochemical
Conditions: 250 nM Ac-DEVD-AMC, 1.6 nM enzyme
Protocol: Caspase 3 was diluted in Caspase 3 buffer (100 mM Hepes pH 7.5; 10% sucrose; 0.1% CHAPS). Compounds stocks (100 mM) were stored at −20° C. in DMSO. Compounds were tested at different concentrations: from 200 μM to 91 nM.
Reactions were performed as duplicates in Black 384 well plates (small volume microplates; Greiner; 10 μl final reaction volume). The substrate concentration for caspase 3 specificity assay was 250 nM (Ac-DEVD-AMC; Promega). The concentration of the enzyme (Caspase 3) in specificity assays was 1.6 nM. The concentrations were determined in order to perform specificity assays under initial velocities at fixed substrate concentration. Compounds were pre-incubated with enzymes for 30 minutes at 25° C. Reactions were initiated by addition of substrate to the plates containing the enzymes (+/−compounds) diluted in assay buffer. Reactions were incubated for 60 minutes at 37° C. Reactions were stopped by adding acetic acid (100 mM final). Readings were performed on a Pherastar Fluorescent Reader (BMG). λ Emission 380 nm; λ Excitation=460 nm. Data (mean values+/−standard deviation) were analyzed as % of control (no compound) and plotted as percentage versus the Log of the compound concentration using GraphPad (Prism). Data were fitted to a sigmoidal model (variable slope).

SMILES	IC50 [µM]
CCN(CC)CCNC(=O)c1ccc2c(Cl)c3c(nc2c1)CCCC3 [Example 7, 9-Chloro-5,6,7,8-tetrahydro-acridine-3-carboxylic acid (2-diethylamino-ethyl)-amide]	> 200
CCN1CCCC1CNC(=O)c1ccc2c(Cl)c3c(nc2c1)CCCC3 (stereo not shown) [Example 2, 9-Chloro-5,6,7,8-tetrahydro-acridine-3-carboxylic acid (1-ethyl-pyrrolidin-2-ylmethyl)-amide]	> 200
CCCN(CCC)CCNC(=O)c1ccc2c(Cl)c3c(nc2c1)CCCC3 [Example 3, 9-Chloro-5,6,7,8-tetrahydro-acridine-3-carboxylic acid (2-dipropylamino-ethyl)-amide]	> 200
O=C(c1ccc2c(Cl)c3c(nc2c1)CCCC3)N1CCC(N2CCCCC2)CC1 [Example 16, [1,4′]Bipiperidinyl-1′-yl-(9-chloro-5,6,7,8-tetrahydro-acridin-3-yl)-methanone]	> 200
Cc1cccc(CN2CCC(CNC(=O)c3ccc4c(Cl)c5c(nc4c3)CCCC5)CC2)c1 [Example 1, 9-Chloro-5,6,7,8-tetrahydro-acridine-3-carboxylic acid [1-(3-methyl-benzyl)-piperidin-4-ylmethyl]-amide]	> 200
O=C(NCCCN1CCCC1)c1ccc2c(Cl)c3c(nc2c1)CCCC3 [Example 8, 9-Chloro-5,6,7,8-tetrahydro-acridine-3-carboxylic acid (3-pyrrolidin-1-yl-propyl)-amide]	> 200
O=C(c1ccc2c(Cl)c3c(nc2c1)CCCC3)N1CCCCCC1 [Example 12, Azepan-1-yl-(9-chloro-5,6,7,8-tetrahydro-acridin-3-yl)-methanone]	> 200
CN(CCCNC(=O)c1ccc2c(Cl)c3c(nc2c1)CCCC3)Cc1ccccc1 [Example 14, 9-Chloro-5,6,7,8-tetrahydro-acridine-3-carboxylic acid [3-(benzyl-methyl-amino)-propyl]-amide]	> 200

More lines, now with the values ahead:

IC50 [µM]	SMILES
> 200	CC1CCCC(C)N1CCCNC(=O)c1ccc2c(Cl)c3c(nc2c1)CCCC3 (stereo not shown) [Example 9, 9-Chloro-5,6,7,8-tetrahydro-acridine-3-carboxylic acid [3-(2,6-dimethyl-piperidin-1-yl)-propyl]-amide]
> 200	CN1CCN(CCCNC(=O)c2ccc3c(Cl)c4c(nc3c2)CCCC4)CC1 [Example 15, 9-Chloro-5,6,7,8-tetrahydro-acridine-3-carboxylic acid [3-(4-methyl-piperazin-1-yl)-propyl]-amide]
> 200	CCCN1CCN(CCCNC(=O)c2ccc3c(Cl)c4c(nc3c2)CCCC4)CC1 [Example 13, 9-Chloro-5,6,7,8-tetrahydro-acridine-3-carboxylic acid [3-(4-propyl-piperazin-1-yl)-propyl]-amide]
> 200	CCN(CCCNC(=O)c1ccc2c(Cl)c3c(nc2c1)CCCC3)Cc1ccccc1 [Example 5, 9-Chloro-5,6,7,8-tetrahydro-acridine-3-carboxylic acid [3-(benzyl-ethyl-amino)-propyl]-amide]
> 200	CCCCN(CC)CCNC(=O)c1ccc2c(Cl)c3c(nc2c1)CCCC3 [Example 4, 9-Chloro-5,6,7,8-tetrahydro-acridine-3-carboxylic acid [2-(butyl-ethyl-amino)-ethyl]-amide]
> 200	CN(C)CCNC(=O)c1ccc2c(Cl)c3c(nc2c1)CCCC3 [Example 11, 9-Chloro-5,6,7,8-tetrahydro-acridine-3-carboxylic acid (2-dimethylamino-ethyl)-amide]
> 200	CCCN(CCC)CCCNC(=O)c1ccc2c(Cl)c3c(nc2c1)CCCC3 [Example 6, 9-Chloro-5,6,7,8-tetrahydro-acridine-3-carboxylic acid (3-dipropylamino-propyl)-amide]
> 200	CCN(CC)CCCNC(=O)c1ccc2c(Cl)c3c(nc2c1)CCCC3 [Example 10, 9-Chloro-5,6,7,8-tetrahydro-acridine-3-carboxylic acid (3-diethylamino-propyl)-amide]

Reference: patent publication US20110177105A1, “Novel Selective Inhibitors of Ubiquitin Specific Protease 7, the Pharmaceutical Compositions Thereof and Their Therapeutic Applications” (priority 2010, published 2011)
